# Measured values as given in PubChem BioAssay (NCI).
#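 Five compound concentrations were applied to cells in 96-well plates for 48 hours; endpoints were derived by simple linear interpolation of the resulting dose-response curve. TGI: total growth inhibition.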
# Assays:
# Experiment in all cases: NCI-60 cell line screen, 48 h
# 786-0 renal = tested on: 786-0 renal
# A498 renal = tested on: A498 renal
# A549 NSCLC = tested on: A549 NSCLC
# ACHN renal = tested on: ACHN renal
# BT-549 breast = tested on: BT-549 breast
# CAKI-1 renal = tested on: CAKI-1 renal
# COLO 205 colon = tested on: COLO 205 colon
# DU-145 prostate = tested on: DU-145 prostate
# EKVX NSCLC = tested on: EKVX NSCLC
# HCC-2998 colon = tested on: HCC-2998 colon
# HCT-116 colon = tested on: HCT-116 colon
# HCT-15 colon = tested on: HCT-15 colon
# HL-60(TB) leukemia = tested on: HL-60(TB) leukemia
# HOP-62 NSCLC = tested on: HOP-62 NSCLC
# HOP-92 NSCLC = tested on: HOP-92 NSCLC
# HS 578T breast = tested on: HS 578T breast
# HT29 colon = tested on: HT29 colon
# IGROV1 ovarian = tested on: IGROV1 ovarian
# KM12 colon = tested on: KM12 colon
# LOX IMVI melanoma = tested on: LOX IMVI melanoma
# M14 melanoma = tested on: M14 melanoma
# MCF7 breast = tested on: MCF7 breast
# MDA-MB-231 breast = tested on: MDA-MB-231 breast
# MDA-MB-435 = tested on: MDA-MB-435
# MDA-N = tested on: MDA-N
# MOLT-4 leukemia = tested on: MOLT-4 leukemia
# NCI-H226 lung = tested on: NCI-H226 lung
# NCI-H23 lung = tested on: NCI-H23 lung
# NCI-H460 lung = tested on: NCI-H460 lung
# NCI-H522 lung = tested on: NCI-H522 lung
# NCI/ADR-RES ovarian = tested on: NCI/ADR-RES ovarian
# OVCAR-3 ovarian = tested on: OVCAR-3 ovarian
# OVCAR-4 ovarian = tested on: OVCAR-4 ovarian
# OVCAR-5 ovarian = tested on: OVCAR-5 ovarian
# OVCAR-8 ovarian = tested on: OVCAR-8 ovarian
# PC-3 prostate = tested on: PC-3 prostate
# RPMI-8226 leukemia = tested on: RPMI-8226 leukemia
# RXF 393 renal = tested on: RXF 393 renal
# SF-268 CNS = tested on: SF-268 CNS
# SF-295 CNS = tested on: SF-295 CNS
# SF-539 CNS = tested on: SF-539 CNS
# SK-MEL-2 melanoma = tested on: SK-MEL-2 melanoma
# SK-MEL-28 melanoma = tested on: SK-MEL-28 melanoma
# SK-MEL-5 melanoma = tested on: SK-MEL-5 melanoma
# SK-OV-3 ovarian = tested on: SK-OV-3 ovarian
# SN12C renal = tested on: SN12C renal
# SNB-19 CNS = tested on: SNB-19 CNS
# SNB-75 CNS = tested on: SNB-75 CNS
# SR leukemia = tested on: SR leukemia
# SW-620 colon = tested on: SW-620 colon
# T-47D breast = tested on: T-47D breast
# TK-10 renal = tested on: TK-10 renal
# U251 CNS = tested on: U251 CNS
# UACC-257 melanoma = tested on: UACC-257 melanoma
# UACC-62 melanoma = tested on: UACC-62 melanoma
# UO-31 renal = tested on: UO-31 renal
# CCRF-CEM leukemia = tested on: CCRF-CEM leukemia
# K-562 leukemia = tested on: K-562 leukemia
# MALME-3M melanoma = tested on: MALME-3M melanoma
structure (smiles),measurement,setting,value
CC(C)(C)NCC(O)c1ccc(O)c(CO)n1 (stereo not drawn),TGI,786-0 renal,> 100 µM
same,TGI,A498 renal,> 100 µM
same,TGI,A549 NSCLC,> 100 µM
same,TGI,ACHN renal,> 100 µM
same,TGI,BT-549 breast,> 100 µM
same,TGI,CAKI-1 renal,> 100 µM
same,TGI,COLO 205 colon,> 100 µM
same,TGI,DU-145 prostate,> 100 µM
same,TGI,EKVX NSCLC,> 100 µM
same,TGI,HCC-2998 colon,> 100 µM
same,TGI,HCT-116 colon,> 100 µM
same,TGI,HCT-15 colon,> 100 µM
same,TGI,HL-60(TB) leukemia,> 100 µM
same,TGI,HOP-62 NSCLC,> 100 µM
same,TGI,HOP-92 NSCLC,> 100 µM
same,TGI,HS 578T breast,> 100 µM
same,TGI,HT29 colon,> 100 µM
same,TGI,IGROV1 ovarian,> 100 µM
same,TGI,KM12 colon,> 100 µM
same,TGI,LOX IMVI melanoma,> 100 µM
same,TGI,M14 melanoma,> 100 µM
same,TGI,MCF7 breast,> 100 µM
same,TGI,MDA-MB-231 breast,> 100 µM
same,TGI,MDA-MB-435,> 100 µM
same,TGI,MDA-N,> 100 µM
same,TGI,MOLT-4 leukemia,> 100 µM
same,TGI,NCI-H226 lung,> 100 µM
same,TGI,NCI-H23 lung,> 100 µM
same,TGI,NCI-H460 lung,> 100 µM
same,TGI,NCI-H522 lung,> 100 µM
same,TGI,NCI/ADR-RES ovarian,> 100 µM
same,TGI,OVCAR-3 ovarian,> 100 µM
same,TGI,OVCAR-4 ovarian,> 100 µM
same,TGI,OVCAR-5 ovarian,> 100 µM
same,TGI,OVCAR-8 ovarian,> 100 µM
same,TGI,PC-3 prostate,> 100 µM
same,TGI,RPMI-8226 leukemia,> 100 µM
same,TGI,RXF 393 renal,> 100 µM
same,TGI,SF-268 CNS,> 100 µM
same,TGI,SF-295 CNS,> 100 µM
same,TGI,SF-539 CNS,> 100 µM
same,TGI,SK-MEL-2 melanoma,> 100 µM
same,TGI,SK-MEL-28 melanoma,> 100 µM
same,TGI,SK-MEL-5 melanoma,> 100 µM
same,TGI,SK-OV-3 ovarian,> 100 µM
same,TGI,SN12C renal,> 100 µM
same,TGI,SNB-19 CNS,> 100 µM
same,TGI,SNB-75 CNS,> 100 µM
same,TGI,SR leukemia,> 100 µM
same,TGI,SW-620 colon,> 100 µM
same,TGI,T-47D breast,> 100 µM
same,TGI,TK-10 renal,> 100 µM
same,TGI,U251 CNS,> 100 µM
same,TGI,UACC-257 melanoma,> 100 µM
same,TGI,UACC-62 melanoma,> 100 µM
same,TGI,UO-31 renal,> 100 µM
CC(C)c1c(O)ccc2c1CCC1C(C)(C)CCCC21C (stereo not drawn),TGI,786-0 renal,32.2 µM
same,TGI,A549 NSCLC,31.9 µM
same,TGI,ACHN renal,30.8 µM
same,TGI,BT-549 breast,32.8 µM
same,TGI,CAKI-1 renal,31.7 µM
same,TGI,CCRF-CEM leukemia,49.3 µM
same,TGI,COLO 205 colon,32 µM
same,TGI,DU-145 prostate,28.3 µM
same,TGI,EKVX NSCLC,31.7 µM
same,TGI,HCC-2998 colon,37.2 µM
same,TGI,HCT-116 colon,31 µM
same,TGI,HCT-15 colon,34.3 µM
same,TGI,HL-60(TB) leukemia,52.3 µM
same,TGI,HOP-92 NSCLC,32.8 µM
same,TGI,HS 578T breast,57.2 µM
same,TGI,HT29 colon,32.1 µM
same,TGI,IGROV1 ovarian,30 µM
same,TGI,K-562 leukemia,50 µM
same,TGI,KM12 colon,42.7 µM
same,TGI,LOX IMVI melanoma,31.1 µM
same,TGI,M14 melanoma,30.2 µM
same,TGI,MALME-3M melanoma,35.6 µM
same,TGI,MCF7 breast,35.3 µM
same,TGI,MDA-MB-231 breast,36.5 µM
same,TGI,MDA-MB-435,38.5 µM
same,TGI,MDA-N,32.3 µM
same,TGI,MOLT-4 leukemia,43.3 µM
same,TGI,NCI-H226 lung,33.6 µM
same,TGI,NCI-H23 lung,31.8 µM
same,TGI,NCI-H460 lung,31.7 µM
same,TGI,NCI-H522 lung,34.6 µM
same,TGI,NCI/ADR-RES ovarian,31.2 µM
same,TGI,OVCAR-3 ovarian,34.1 µM
same,TGI,OVCAR-4 ovarian,32.9 µM
same,TGI,OVCAR-5 ovarian,28.1 µM
same,TGI,OVCAR-8 ovarian,31.7 µM
same,TGI,PC-3 prostate,31.4 µM
same,TGI,RPMI-8226 leukemia,49.3 µM
same,TGI,RXF 393 renal,29.3 µM
same,TGI,SF-268 CNS,35.5 µM
same,TGI,SF-295 CNS,32.5 µM
same,TGI,SF-539 CNS,34 µM
same,TGI,SK-MEL-2 melanoma,31.9 µM
same,TGI,SK-MEL-28 melanoma,38.1 µM
same,TGI,SK-MEL-5 melanoma,29.9 µM
same,TGI,SK-OV-3 ovarian,33.4 µM
same,TGI,SN12C renal,27.8 µM
same,TGI,SNB-19 CNS,32.3 µM
same,TGI,SNB-75 CNS,33.1 µM
same,TGI,SR leukemia,40.5 µM
same,TGI,SW-620 colon,40.1 µM
same,TGI,T-47D breast,5.75 µM
same,TGI,TK-10 renal,35.8 µM
same,TGI,U251 CNS,33.2 µM
same,TGI,UACC-257 melanoma,32.2 µM
same,TGI,UACC-62 melanoma,28.9 µM
same,TGI,UO-31 renal,31.4 µM
